Here are results for four compounds from PMC12595484, “Optimizing multifunctional fluorescent ligands for intracellular labeling” (Proceedings of the National Academy of Sciences of the …, 2025).

The assay has as its system U2OS cells expressing HaloTag–H2B. The experiment in a line: Dye loading kinetics. The class given is cell-based. The conditions noted are these: 200 nM. Here is the method: U2OS cell culture, labeling, and fluorescence microscopy. U2OS cells (ATCC) were cultured in Dulbecco's modified Eagle medium (DMEM, phenol red-free; Life Technologies) supplemented with 10% (v/v) fetal bovine serum (FBS, Life Technologies), 1 mM GlutaMAX (Life Technologies) and maintained at 37 °C in a humidified 5% (v/v) CO2 environment. These cell lines undergo regular mycoplasma testing by the Janelia Cell Culture Facility. U2OS cells stably expressing an integrated HaloTag–histone H2B fusion protein (U2OS.H2B.HaloTag) were used for nuclear imaging and imaged 18–24 h post-plating. […]
Fixed cells were then washed
3× in 1× PBS and incubated with Hoechst 33342 (5µg/mL) for 15 min at 22 °C as a nuclear counterstain. Airyscan imaging was performed on a Zeiss LSM 980 with Airyscan 2 confocal microscope using a Plan APO 63×/1.4 oil DIC M27 objective. The same acquisition settings were used for all constructs labeled with 13HTL–16HTL. These single plane images were bulk processed in ZEN Blue (Zeiss) with automatic Airyscan settings.
Dye loading kinetics. Live U2OS.H2B.HaloTag stable cells were labeled over a time course of 0–4 h with 200 nM of biotin-JF549-HaloTag ligand (13HTL), biotin-JF608-HaloTag ligand (14HTL), biotin-JF646-HaloTag ligand (15HTL), or biotin-JF635-HaloTag ligand (16HTL) at 37 °C. Cells were […]
then washed 3× with dye-free media, fixed with 4% paraformaldehyde in 0.1 M phosphate buffer, pH 7.4 for 15 min at 37 °C. Confocal imaging was performed on a Leica SP8 with an HC PL APO CS2 20×/0.75 immersion objective using the tunable white light laser ( WLL) to excite dyes at their λabs in constant power mode. Fluorescence was quantified as the average integrated density of background corrected nuclear signals from confocal image stack projections analyzed in Fiji;14 n = 100 nuclear signals per compound. […]
(IB) consisting of KCl (0.18 M), ethylene glycol-bis(β-aminoethyl ether)-N,N,N′,N′-tetraacetic acid (EGTA; 1 mM), 3-(N-morpholino)propanesulfonic acid (MOPS; 5 mM); the pH was adjusted to pH = 7.35 using KOH(aq).15 StrepTactin Microbeads (IBA Lifesciences, 6-5510-050) were used as capture reagents as these beads had lowest amount of background observed in our hands. […]
The post-bead supernatant and wash volumes were pooled and spun at 15,000 g for 12 min. […] The affinity capture pulldown efficiency was monitored using in-gel fluorescence. The msGFP signal from HaloTag-TEV-4×GS-msGFP-mito after cell lysis and SDS-PAGE was analyzed, in-gel, using a Bio-Rad Chemidoc MP imager (Bio-Rad) through GFP fluorescence excitation and emission filters. Data were quantified by densitometry using Fiji.14 Capture efficiency was […]

`O=C(CCCCC1SCC2NC(=O)NC21)NCCOCCOCCNC(=O)C1C[N+](=c2ccc3c(-c4cc(C(=O)NCCOCCOCCCCCCCl)ccc4C(=O)[O-])c4ccc(N5CCC5)cc4oc-3c2)C1` (stereo not shown) [13HTL, biotin–JF549–HaloTag ligand]: the “intracellular labeling over 4 h” value is listed as “negligible intracellular labeling”.

With `CC1(C)C2=CC(=[N+]3CC(C(=O)NCCOCCOCCNC(=O)CCCC[C@@H]4SC[C@@H]5NC(=O)N[C@@H]54)C3)C=CC2=C(c2cc(C(=O)NCCOCCOCCCCCCCl)ccc2C(=O)[O-])c2ccc(N3CCC3)cc21` (stereo partly shown) [14HTL, biotin–JF608–HaloTag ligand], the “time to maximal intensity” value is listed as 4 h.

`C[Si]1(C)C2=CC(=[N+]3CC(C(=O)NCCOCCOCCNC(=O)CCCC[C@@H]4SC[C@@H]5NC(=O)N[C@@H]54)C3)C=CC2=C(c2cc(C(=O)NCCOCCOCCCCCCCl)ccc2C(=O)[O-])c2ccc(N3CCC3)cc21` (stereo partly shown) [15HTL, biotin–JF646–HaloTag ligand]: the “time to maximal intensity” value was determined as 1 h.

Turning to `C[Si]1(C)C2=CC(=[N+]3CC(F)(C(=O)NCCOCCOCCNC(=O)CCCC[C@@H]4SC[C@@H]5NC(=O)N[C@@H]54)C3)C=CC2=C(c2cc(C(=O)NCCOCCOCCCCCCCl)ccc2C(=O)[O-])c2ccc(N3CC(F)C3)cc21` (stereo partly shown) [16HTL, biotin–JF635–HaloTag ligand], the “time to maximal intensity” value is on record as 1 h.
